Tested on: human PDA tumors
Assay: Median survival by HMGA2/GATA6 status (IHC, tissue microarray of human PDA tumors) and first-line therapy
Type: in vivo
Settings: first-line therapy, FIG. 12A-12B
Protocol: Expression levels of HMGA2 and GATA6 were determined separately in Tissue microarray comprising human PDA tumors from over 800 patients, along with matched (normal pancreatic tissue) controls and correlated to clinical data (stage at diagnosis, treatment history). These samples were stained and scored for HMGA2 (FIG. 9A) and GATA6.

In the case of `Nc1ccn([C@@H]2O[C@H](CO)[C@@H](O)C2(F)F)c(=O)n1` [Gemcitabine], the “overall median survival of HMGA2^high/GATA6^low tumors compared to HMGA2^low/GATA6^high tumors” value was “overall low median survival”.

— patent US20240384353A1, “METHODS OF TREATING PANCREATIC CANCER” (Fred Hutchinson Cancer Center, priority 2023, published 2024)
